Where a name gives a salt, the structure may show the parent alone.

human factor Xa (FXa), sequence (P00742 235-488 limits assumed): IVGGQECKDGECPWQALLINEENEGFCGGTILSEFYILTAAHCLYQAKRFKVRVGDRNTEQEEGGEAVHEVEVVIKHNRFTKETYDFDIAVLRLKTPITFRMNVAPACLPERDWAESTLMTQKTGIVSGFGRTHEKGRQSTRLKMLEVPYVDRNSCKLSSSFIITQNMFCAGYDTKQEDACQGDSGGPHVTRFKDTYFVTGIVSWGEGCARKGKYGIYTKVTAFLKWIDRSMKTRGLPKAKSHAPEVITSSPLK
human factor Xa (FXa), sequence (P00742 41-179 partner limits assumed): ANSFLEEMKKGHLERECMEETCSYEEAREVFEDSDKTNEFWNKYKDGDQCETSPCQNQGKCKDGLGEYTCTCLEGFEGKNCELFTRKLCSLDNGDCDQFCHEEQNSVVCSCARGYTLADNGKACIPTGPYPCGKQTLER

In this assay the target is human factor Xa (FXa) (Homo sapiens, UniProt P00742). Nature of the assay: Determination of the factor Xa inhibition (chromogenic substrate). It is filed as biochemical. The conditions noted are these: human FXa 0.5 nmol/l, Pefachrome FXa substrate, 25° C., pH 8.3, extinction at 405 nm. On the procedure:
A.1) Determination of the Factor Xa Inhibition:
The enzymatic inhibition of human factor Xa (FXa) is measured using the conversion of a chromogenic substrate specific for FXa. Factor Xa cleaves p-nitroaniline from the chromogenic substrate. The determinations are carried out in microtitre plates as follows:
The test substances, in various concentrations, are dissolved in DMSO and incubated for 10 minutes at 25° C. with human FXa (0.5 nmol/l dissolved in 50 mmol/l of Tris buffer [C,C,C-tris(hydroxymethyl)aminomethane], 150 mmol/l of NaCl, 0.1% BSA [bovine serum albumin], pH=8.3). Pure DMSO is used as control. The chromogenic substrate ([…] Pefachrome® FXa from Pentapharm) is then added. After an incubation time of 20 minutes at 25° C., the extinction at 405 nm is determined.
Usually IC50 stands for the concentration that inhibits the measured activity by half. The compound `Cc1ccc(NC(=O)c2nccnc2C(=O)Nc2ccc(N3CCOCC3=O)cc2)cc1` [Example 18, N-(4-Methylphenyl)-N′-[4-(3-oxomorpholin-4-yl)phenyl]pyrazine-2,3-dicarboxamide] gave an IC50 of 7.5 nM.

The compound `O=C(Nc1ccc(Cl)cn1)c1nccnc1C(=O)Nc1ccc(-n2cccc(CNC3CC3)c2=O)cc1F` [Example 30, N-(5-Chloropyridin-2-yl)-N′-{4-[3-[(cyclopropylamino)methyl]-2-oxopyridin-1(2H)-yl]-2-fluorophenyl}pyrazine-2,3-dicarboxamide trifluoracetate, trifluoroacetate] gave an IC50 of 0.44 nM.

The compound `O=C(Nc1ccc(Cl)cn1)c1nccnc1C(=O)Nc1ccc(N2CCCC(O)C2=O)cc1F` (centres unmarked) [Example 9, N-(5-Chloropyridin-2-yl)-N′-[2-fluor-4-(3-hydroxy-2-oxopiperidin-1-yl)phenyl]pyrazine-2,3-di-carboxamide] showed an IC50 of 4.4 nM. As for `O=C(Nc1ccc(N2CCOCC2=O)cc1)c1nccnc1C(=O)Nc1ccc(Cl)cn1` [Example 12, N-(5-Chloropyridin-2-yl)-N′[4-(3-oxomorpholin-4-yl)phenyl]pyrazine-2,3-dicarboxamide], the figure is 0.16 nM; as for `O=C(Nc1ccc(Cl)cc1)c1nccnc1C(=O)Nc1ccc(N2CCOCC2=O)cc1` [Example 11, N-(4-Chlorophenyl)-N′-[4-(3-oxomorpholin-4-yl)phenyl]pyrazine-2,3-dicarboxamide], 0.49 nM.

For the compound `C#Cc1ccc(NC(=O)c2nccnc2C(=O)Nc2ccc(N3CCOCC3=O)cc2)cc1` [Example 20, N-(4-Ethynylphenyl)-N′-[4-(3-oxomorpholin-4-yl)phenyl]pyrazine-2,3-dicarboxamide], the IC50 turned out to be 6.3 nM.

`O=C(Nc1ccc(F)cc1)c1nccnc1C(=O)Nc1ccc(N2CCOCC2=O)cc1` [Example 17, N-(4-Fluorophenyl)-N′[4-(3-oxomorpholin-4-yl)phenyl]pyrazine-2,3-dicarboxamide]: the IC50 was 16 nM. As for `NCCOc1cc(N2CCOCC2=O)ccc1NC(=O)c1nccnc1C(=O)Nc1ccc(Cl)cn1` [Example 32, N-[2-(2-Aminoethoxy)-4-(3-oxomorpholin-4-yl)phenyl]-N′-(5-chloropyridin-2-yl)pyrazine-2,3-dicarboxamide trifluoroacetate], the figure is 0.3 nM.

These data come from patent US20060287315A1, “Pyrazinedicarboxamides and their use” (Bayer HealthCare AG, priority 2004, published 2006).
